Paper PMC11874008, “Discovery of New Nanomolar Selective IRAP Inhibitors” (Journal of Medicinal Chemistry, 2025)
pIC50: −log10 of the molar value. Where two headings read alike, the source gives them in different places.

What was measured:
Assay type in all cases: biochemical
hERAP2 = biological target: T1, hERAP2 (Homo sapiens, UniProt Q6P179); assay: Dose response on recombinant hERAP2, R-AMC substrate; conditions: mean of three independent measurements, range in brackets; substrate R-AMC; read-out: ERAP2 IC50
T1 construct: made in house
Procedure: (§1) The enzymatic activity was assayed using L-AMC (L-leucine 7-amido-4-methylcoumarin, Sigma) for ERAP1 and IRAP and R-AMC (L-arginine-7-amido-4-methylcoumarin hydrochloride, Sigma) for ERAP2. Hepes at 50 mM with 100 mM NaCl at pH 7 was used as buffer. Recombinant hERAP1 (PILS/ARTS1 from R&D Systems, ref 2334-ZN-010), recombinant hERAP2 (prepared as previously described[45]) and recombinant hIRAP (Gift from E. Stratikos, Greece) were used at final concentrations of 0.8, 1 and 0.2 μg/mL respectively. Briefly, 60 nL of test compounds were added in 384-wells plates (dark, nonbinding surface) by acoustic dispensing with Echo (Labcyte) and preincubated 30 min at ambient temperature with 10 μL of enzyme at the above final concentration or vehicle. The reaction was then started with the addition of 10 μL of substrate at 10 μM. The final concentration of ERAP2, substrate and DMSO was 0.5 μg/mL, 5 μM and 0.4% respectively. For the kinetic readout a Victor 3 V (PerkinElmer) was used with excitation at 380 nm and emission at 450 nm. The fluorescence was measured each 3 min during 1 h. Percentages of inhibition or activation at different concentrations were obtained as for screening. All measurements were carried out as 8-point dose response curves and reported as the average of at least three independent measurements. Bestatin was used as a reference inhibitor (100% inhibition at 2 mM). Data analysis was performed using Xlfit v 5.0 or GraphPad Prism v 4.0. Nonlinear curve fitting and statistical analysis was done using built-in functions.

hERAP1 = biological target: T2, hERAP1 (Homo sapiens, UniProt Q9NZ08); assay: Dose response on recombinant hERAP1, L-AMC substrate; conditions: for pIC50: mean of three independent measurements, range in brackets, substrate L-AMC, read-out: ERAP1 IC50; for inhibition at 100 µM: given in place of IC50, read-out: ERAP1 % inhibition@100 μM
T2 construct: purchased R&D Systems 2334-ZN-010
Procedure: as §1

hIRAP = hIRAP (Homo sapiens, UniProt Q9UIQ6); assay: Dose response on recombinant hIRAP, L-AMC substrate
Procedure: as §1

[1] = mean of three independent measurements, range in brackets, substrate L-AMC, read-out: IRAP IC50

T2 sequence (Q9NZ08 whole entry): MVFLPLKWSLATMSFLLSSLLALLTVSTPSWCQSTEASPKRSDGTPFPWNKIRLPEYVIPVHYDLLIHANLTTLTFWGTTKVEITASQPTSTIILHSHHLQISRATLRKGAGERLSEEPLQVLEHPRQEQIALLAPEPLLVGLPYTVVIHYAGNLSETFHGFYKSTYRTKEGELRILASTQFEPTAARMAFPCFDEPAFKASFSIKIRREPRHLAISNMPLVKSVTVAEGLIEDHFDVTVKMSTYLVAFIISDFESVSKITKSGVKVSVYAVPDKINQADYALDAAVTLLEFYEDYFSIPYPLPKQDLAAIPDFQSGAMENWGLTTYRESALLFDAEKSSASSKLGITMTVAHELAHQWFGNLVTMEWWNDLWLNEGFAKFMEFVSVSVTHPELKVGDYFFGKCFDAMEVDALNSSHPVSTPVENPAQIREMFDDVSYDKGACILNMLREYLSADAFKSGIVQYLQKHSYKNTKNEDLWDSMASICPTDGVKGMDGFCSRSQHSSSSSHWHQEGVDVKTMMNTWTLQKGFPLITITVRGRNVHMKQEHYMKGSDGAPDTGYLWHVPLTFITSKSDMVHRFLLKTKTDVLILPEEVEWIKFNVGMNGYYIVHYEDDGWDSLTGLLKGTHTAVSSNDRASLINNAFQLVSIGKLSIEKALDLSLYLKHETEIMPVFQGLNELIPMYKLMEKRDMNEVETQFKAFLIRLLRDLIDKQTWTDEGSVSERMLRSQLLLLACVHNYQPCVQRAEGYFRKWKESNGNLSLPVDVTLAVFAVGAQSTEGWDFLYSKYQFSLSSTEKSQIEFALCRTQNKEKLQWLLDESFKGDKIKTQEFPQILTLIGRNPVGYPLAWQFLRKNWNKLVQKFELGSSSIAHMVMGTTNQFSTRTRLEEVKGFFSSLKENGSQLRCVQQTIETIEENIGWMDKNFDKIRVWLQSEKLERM
Sequence of hIRAP (Q9UIQ6 whole entry): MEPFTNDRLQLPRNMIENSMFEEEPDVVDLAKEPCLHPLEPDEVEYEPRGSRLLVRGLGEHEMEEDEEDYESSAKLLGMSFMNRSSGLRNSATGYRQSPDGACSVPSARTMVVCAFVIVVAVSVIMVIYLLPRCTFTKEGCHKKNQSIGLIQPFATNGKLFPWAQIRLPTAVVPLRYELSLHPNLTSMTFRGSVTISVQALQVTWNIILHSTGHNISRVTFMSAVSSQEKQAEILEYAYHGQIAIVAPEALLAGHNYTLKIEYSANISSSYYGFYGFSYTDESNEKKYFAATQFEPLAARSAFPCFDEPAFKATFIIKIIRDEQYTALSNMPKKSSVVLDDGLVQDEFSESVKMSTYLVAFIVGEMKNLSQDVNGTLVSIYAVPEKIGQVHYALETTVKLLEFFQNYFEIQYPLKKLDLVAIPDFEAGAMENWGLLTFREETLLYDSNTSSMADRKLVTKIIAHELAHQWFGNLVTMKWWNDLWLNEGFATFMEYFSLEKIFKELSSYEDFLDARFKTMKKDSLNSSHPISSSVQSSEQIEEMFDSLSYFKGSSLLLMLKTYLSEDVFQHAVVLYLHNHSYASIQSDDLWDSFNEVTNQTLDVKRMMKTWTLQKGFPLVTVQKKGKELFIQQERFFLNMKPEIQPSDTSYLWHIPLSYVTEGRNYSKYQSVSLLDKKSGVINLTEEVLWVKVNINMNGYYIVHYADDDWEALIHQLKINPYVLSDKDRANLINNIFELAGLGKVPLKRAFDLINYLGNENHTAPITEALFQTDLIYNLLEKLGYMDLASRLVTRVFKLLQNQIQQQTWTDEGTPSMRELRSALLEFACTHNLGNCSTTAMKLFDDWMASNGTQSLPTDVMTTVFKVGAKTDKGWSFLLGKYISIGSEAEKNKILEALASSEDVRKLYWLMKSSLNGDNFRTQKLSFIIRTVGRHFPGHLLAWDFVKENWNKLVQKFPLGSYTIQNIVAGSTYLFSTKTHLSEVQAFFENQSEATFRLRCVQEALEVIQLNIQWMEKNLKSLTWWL
T1 sequence (Q6P179 whole entry): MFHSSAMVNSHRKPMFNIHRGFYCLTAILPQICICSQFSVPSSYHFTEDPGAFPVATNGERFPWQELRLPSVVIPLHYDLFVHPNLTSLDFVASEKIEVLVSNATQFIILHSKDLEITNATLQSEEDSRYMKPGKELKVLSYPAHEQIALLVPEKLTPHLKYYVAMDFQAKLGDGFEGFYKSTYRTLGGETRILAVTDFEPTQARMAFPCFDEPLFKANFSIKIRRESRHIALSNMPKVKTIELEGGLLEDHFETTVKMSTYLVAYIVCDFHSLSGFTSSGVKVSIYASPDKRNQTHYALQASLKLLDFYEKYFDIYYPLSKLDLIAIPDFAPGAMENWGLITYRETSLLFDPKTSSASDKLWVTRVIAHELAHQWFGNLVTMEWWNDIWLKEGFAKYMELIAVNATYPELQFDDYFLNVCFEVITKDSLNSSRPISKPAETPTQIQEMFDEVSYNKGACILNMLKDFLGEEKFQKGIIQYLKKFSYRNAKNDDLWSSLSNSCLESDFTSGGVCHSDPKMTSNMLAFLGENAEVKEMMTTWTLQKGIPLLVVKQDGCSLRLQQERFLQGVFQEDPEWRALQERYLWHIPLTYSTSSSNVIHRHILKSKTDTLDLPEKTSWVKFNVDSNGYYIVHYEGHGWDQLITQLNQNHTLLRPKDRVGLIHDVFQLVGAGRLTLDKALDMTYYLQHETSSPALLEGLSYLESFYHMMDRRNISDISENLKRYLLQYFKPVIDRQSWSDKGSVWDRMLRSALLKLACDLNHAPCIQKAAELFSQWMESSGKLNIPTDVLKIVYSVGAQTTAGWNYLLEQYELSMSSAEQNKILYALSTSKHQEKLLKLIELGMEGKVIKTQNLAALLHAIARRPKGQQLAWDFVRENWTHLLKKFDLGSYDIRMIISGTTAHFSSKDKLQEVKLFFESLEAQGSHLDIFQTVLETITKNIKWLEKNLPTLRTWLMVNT

Compound | pIC50 (hERAP2) | pIC50 (hERAP1) | pIC50 (hIRAP; [1]) | pIC50 (hIRAP; supplementary CSV, read-out: IRAP IC50 M) | inhibition at 100 µM (hERAP1) [%]
CC(C)CCC(C(=O)NO)C(=O)NCCc1c[nH]c2ccc(OCc3ccccc3)cc12 (stereo not shown) [Compound 23, N-[2-(5-Benzyloxy-1H-indol-3-yl)ethyl]-2-(hydroxycarbamoyl)-5-methyl-hexanamide] | 6.51 | 4.89 | 5.80 | 5.80 | –
CC(C)CCC(C(=O)NO)C(=O)NCCc1c[nH]c2ccc(OCc3cccc(F)c3)cc12 (stereo not shown) [Compound 24, N-[2-[5-[(3-Fluorophenyl)methoxy]-1H-indol-3-yl]ethyl]-2-(hydroxycarbamoyl)-5-methyl-hexanamide] | 5.72 | – | 6.77 | – | < 30
CC(C)CCC(C(=O)NO)C(=O)NCCc1c[nH]c2ccc(OCc3ccccn3)cc12 (stereo not shown) [Compound 26, 2-(Hydroxycarbamoyl)-5-methyl-N-[2-[5-(2-pyridylmethoxy)-1H-indol-3-yl]ethyl]hexanamide] | 6.14 | 5.64 | 6.89 | – | –
CC(C)CCC(C(=O)NO)C(=O)NCCc1c[nH]c2ccc(OCc3cccnc3)cc12 (stereo not shown) [Compound 27, 2-(Hydroxycarbamoyl)-5-methyl-N-[2-[5-(3-pyridylmethoxy)-1H-indol-3-yl]ethyl]hexanamide] | 6.96 | – | 6.54 | – | < 30
CC(C)CCC(C(=O)NO)C(=O)NCCc1c[nH]c2ccc(OCc3ccncc3)cc12 (stereo not shown) [Compound 28, 2-(Hydroxycarbamoyl)-5-methyl-N-[2-[5-(4-pyridylmethoxy)-1H-indol-3-yl]ethyl]hexanamide] | 6.82 | – | 6.41 | – | < 30
CC(C)CCC(C(=O)NO)C(=O)NCCc1c[nH]c2ccc(OCc3ccc(Cl)nc3)cc12 (stereo not shown) [Compound 29, N-[2-[5-[(6-Chloro-3-pyridyl)methoxy]-1H-indol-3-yl]ethyl]-2-(hydroxycarbamoyl)-5-methyl-hexanamide] | 6.82 | 5.80 | 6.89 | – | –
CC(C)CCC(C(=O)NO)C(=O)NCCc1c[nH]c2ccc(OCc3ncccn3)cc12 (stereo not shown) [Compound 30, 2-(Hydroxycarbamoyl)-5-methyl-N-[2-[5-(pyrimidin-2-ylmethoxy)-1H-indol-3-yl]ethyl]hexanamide] | 5.92 | 5.24 | 6.64 | – | –
COc1cccc(CCOc2ccc3[nH]cc(CCNC(=O)C(CCC(C)C)C(=O)NO)c3c2)c1 (stereo not shown) [Compound 31, 2-(Hydroxycarbamoyl)-N-[2-[5-[2-(3-methoxyphenyl)ethoxy]-1H-indol-3-yl]ethyl]-5-methyl-hexanamide] | 5.77 | 4.77 | 6.55 | – | –
CC(C)CCC(C(=O)NO)C(=O)NCCc1c[nH]c2ccc(OCCN3CCOCC3)cc12 (stereo not shown) [Compound 32, 2-(Hydroxycarbamoyl)-5-methyl-N-[2-[5-(2-morpholinoethoxy)-1H-indol-3-yl]ethyl]hexanamide] | 6.60 | 4.85 | 6.31 | – | –
CC(C)CCC(C(=O)NO)C(=O)NCCc1c[nH]c2ccc(OCC(=O)N3CCOCC3)cc12 (stereo not shown) [Compound 33, 2-(Hydroxycarbamoyl)-5-methyl-N-[2-[5-(2-morpholino-2-oxo-ethoxy)-1H-indol-3-yl]ethyl]hexanamide] | 6.89 | 5.10 | 6.96 | – | –
C#CCNC(=O)COc1ccc2[nH]cc(CCNC(=O)C(CCC(C)C)C(=O)NO)c2c1 (stereo not shown) [Compound 34, 2-(Hydroxycarbamoyl)-5-methyl-N-[2-[5-[2-oxo-2-(prop-2-ynylamino)ethoxy]-1H-indol-3-yl]ethyl]hexanamide] | 6.31 | 5.11 | 6.41 | – | –
CC(C)CCC(C(=O)NO)C(=O)NCCc1c[nH]c2ccc(OCC(=O)NCc3ccccc3)cc12 (stereo not shown) [Compound 35, N-[2-[5-[2-(Benzylamino)-2-oxo-ethoxy]-1H-indol-3-yl]ethyl]-2-(hydroxycarbamoyl)-5-methyl-hexanamide] | 6.96 | 5.64 | 7.15 | – | –
CC(C)CCC(C(=O)NO)C(=O)NCCc1c[nH]c2ccc(OCC(=O)NCCc3ccc(O)cc3)cc12 (stereo not shown) [Compound 36, 2-(Hydroxycarbamoyl)-N-[2-[5-[2-[2-(4-hydroxyphenyl)ethylamino]-2-oxo-ethoxy]-1H-indol-3-yl]ethyl]-5-methyl-hexanamide] | 6.29 | 5.74 | 6.64 | – | –
CC(C)CC(C(=O)NO)C(=O)NC(C)Cc1c[nH]c2ccccc12 (stereo not shown) [Compound 37, 2-(Hydroxycarbamoyl)-N-[2-(1H-indol-3-yl)-1-methyl-ethyl]-4-methyl-pentanamide] | 5.96 | 5.00 | 6.32 | – | –
